Legend:
[1] = system: mouse model of neurodegeneration affecting both the cortical neurones and the subjacent white matter; assay: Neuroprotection in the cortex and white matter: excitotoxic lesions by intracerebral ibotenate or S-bromo-willardiine; assay type: in vivo; settings: for Cortical lesions: lesion, μm / White matter lesions: lesion, μm: 10 mg/kg i.p. immediately after excitotoxic assault at P5, sacrifice at P10, averages; for size of the lesions in the white matter and in the cortex (neuroprotective effect): newborn Swiss mouse, test compound intraperitoneally after excitotoxic assault
Protocol: The model used is a mouse model of neurodegeneration affecting both the cortical neurones and the subjacent white matter (S. L. Tahraoui et al., Brain Pathol., 2001, 11, 56-71). This model is based on an intracerebral injection of S-bromo-willardiine, a glutamatergic agonist that acts on AMPA-kainate receptors, or of ibotenate, an agonist of NMDA-type receptors, in the newborn mouse.
All the injections are carried out in the morning between 10.00 and 13.00 hours. The animals are anaesthetised in advance and kept under a heating lamp during the handling period. Each experimental group comprises from 5 to 12 Swiss mice of both sexes, from at least 2 different litters. On the 5th day of life (P5), 10 μg of ibotenate or 15 μg of S-bromo-willardiine are injected intracerebrally using a 25G gauge needle mounted on a 50 μl syringe, fixed to a calibrated device that delivers a bolus of 1 μl at each depression. The needle is inserted 2 mm below the cutaneous level, in the fronto-parietal region of the right hemisphere (2 mm in front of the lambdoid suture and 2 mm outside the median line). Two boluses of 1 μl (1 μl into the periventricular white matter and 1 μl into the cortex) are administered. An interval of 30 seconds, during which the needle remains in position, separates each bolus in order to allow diffusion of the product. Immediately after this excitotoxic assault, the test compound (3, 10 or 30 mg/kg) or the carrier is administered intraperitoneally (injected volume=5 μl). The animals are sacrificed by decapitation 5 days later (P10) and their brains are immediately removed and fixed in formol before being enclosed in paraffin. Series of 15 μm coronal sections are prepared for all the brains and stained with cresyl violet, which makes it possible to determine in a precise and reproducible manner the anterio-posterior axis of the histological lesions in both the cortex and the white matter. The sizes of the histological lesions are determined by two independent observers having no knowledge of the experimental groups. The results are expressed in the form of averages.

[2] = system: transitory focal cerebral ischaemia; assay: Anti-ischaemic activity: transitory focal cerebral ischaemia by intraluminal occlusion; assay type: in vivo; settings: adult male Wistar rat; 1 mg/kg intravenously 3 minutes before occlusion; occlusion 1 hour, reperfusion 23 hours
Protocol: The model used is a model of transitory focal cerebral ischaemia produced by intraluminal occlusion which mimics an embolic cerebral vascular accident in humans. The location of the infarction is cortical and subcortical (R. Bordet et al., J Cereb Blood Flow Metab. 20, 2000, 1190-1196 and 1999, 19, 1309-1345).
The model consists of a unilateral occlusion of the […] for 1 hour followed by reperfusion for 23 hours in an adult male Wistar rat. The aim of this experiment is to study the anti-ischaemic effect of the compounds of the invention.
The animals are anaesthetised for surgery with 300 mg/kg of chloral hydrate. For the duration of the surgery, their temperature is monitored and maintained at 37° C. using a temperature-controlled heating blanket.
The principal procedure is to stop the circulation of blood to the right middle cerebral artery (MCA) by intraluminal occlusion of the ostium. After 60 minutes, the occlusion is removed and the animals are replaced in their cage. After 24 hours the animals are sacrificed under anaesthetic. […]
The uncorrected infarcted zones and the total hemispheric zones are calculated separately for each section using an image analysis program. The corrected total volume of infarction is calculated in order to compensate for the effect of cerebral cedema. […]

[3] = system: lesions induced by kainic acid in the CA1 and CA3 regions of the hippocampus; assay: Neuroprotection in the CA1 and CA3 regions of the hippocampus (kainic acid lesions); assay type: in vivo, rat; settings: single injection 20 mg/kg intraperitoneal 3 minutes before kainic acid 12 mg/kg i.p.; sacrifice 7 days later
Protocol: The histopathological changes observed which are associated with administration of kainic acid differ from cerebral ischaemia caused by lesions that develop first in the CA1 to CA3 regions of the hippocampus (C. Montecot et al., Neuroscience 84, 791-800). The aim is to study the protective effect against lesions induced essentially in the CA3 region of the hippocampus while there is no reduction in the circulation of blood.
Kainic acid is administered intraperitoneally to a conscious rat in a dose of 12 mg/kg. The animal is then observed for a period of about 2 hours during which, after a latent period, epileptiform convulsions occur. At the end of 2 hours, the convulsions are stopped by administration of 10 mg/kg of diazepam. The animals are sacrificed 7 days later, their brains are isolated and 8 transverse sections 15 μm thick, spaced 150 μm apart, are prepared. These are analysed by contrast microscopy by two independent observers having no knowledge of the experimental groups. A rating of 0 to 3 is given according to the severity of the neuronal lesions. The ratings for each hemisphere are added together to obtain a lesion rating.
The product is administered in a dose of 20 mg/kg by the intraperitoneal route 3 minutes before administration of the kainic acid.

[4] = system: primary cultures of cardiomyocytes; assay: Anti-apoptotic effect in primary cultures of cardiomyocytes (H2O2-induced apoptosis); assay type: cell-based; settings: newborn rat cardiomyocytes; H2O2 0.075 mmol/liter for 30 minutes, then 24 hours culture
Protocol: An in vitro study into an anti-apoptotic effect in primary cultures of cardiomyocytes was carried out by inducing apoptosis by adding hydrogen peroxide (H2O2). The free radicals produced induce apoptosis. This is similar to what is observed in ischaemia-reperfusion (R. Von Harsdorf, Circulation 99, 2934-2941). The cardiomyocytes are isolated from newborn rat hearts and are spread out at a density of 35 000 cells/cm^2. The process of apoptosis is induced by the addition of H2O2 (0.075 mmol/liter) for 30 minutes. The cardiomyocytes are then replaced in the culture medium for 24 hours. The apoptotic cells are visualised by various techniques, for example by the fragmentation of the genomic DNA that occurs in the process of apoptosis. […] The characteristic fragments of 180 bp of genomic DNA are detected by electrophoresis on agarose gel. The migration of phosphatidylserine (PS) from the inside of the membrane of the […] to the outside (externalisation) is an early indicator of apoptosis. This can be visualised by fluorescent labelling using annexin-V-FITC (fluorescein isothiocyanate) and quantified by comparison with the total number of cells.

Compound	Cortical lesions: lesion, μm [1]	White matter lesions: lesion, μm [1]	size of the lesions in the white matter and in the cortex (neuroprotective effect) [1]	size of the infarction of the cortex and striatum [2]	protection of neurones of the CA1 and CA3 regions of the hippocampus against kainic acid lesions [3]	cell survival [4]	percentage of cells undergoing apoptosis [4]
COc1ccc(CN2CCNCC2)c(OC)c1OC [TMZ, Trimetazidine, reference compound]	800 μm	320 μm	very low neuroprotective effect				
COc1ccc(CN2CCN(Cc3ccccc3)CC2)c(OCCCCCCC(=O)O)c1OC.Cl.Cl [Example 2, 7-{6-[(4-Benzyl-1-piperazinyl)methyl]-2,3-dimethoxyphenoxy}-heptanoic acid dihydrochloride]	200 μm	146.7 μm	reduced the size of the lesions in the white matter and in the cortex	reduced the size of the infarction of the cortex and striatum significantly	protects the neurones of the CA1 and CA3 regions of the hippocampus against lesions induced by kainic acid	increase	decrease

— patent US6686360B2, “N-benzylpiperazine compounds” (priority 2001, dated 2004)
